Test results taken from ChEMBL document CHEMBL1144906, “Characterization of the 5-HT(7) receptor. Determination of the pharmacophore for 5-HT(7) receptor agonism and CoMFA-based modeling of the agonist binding site” (J Med Chem, 2003).
Calls of active or inactive are those of the source. The calls are words filed in the database; no cut-off is given here.

How the values were obtained:
[1] = target: 5-hydroxytryptamine receptor 7 (Rattus norvegicus) (UniProt P32305); experiment: Agonistic activity against rat 5-HT7 adenyl cyclase expressed by HEK293 cells; format: functional, cell-based
[2] = target: 5-hydroxytryptamine receptor 7 (Rattus norvegicus, UniProt P32305); experiment: Binding affinity at rat 5-hydroxytryptamine 7 receptor.
[3] = target: 5-hydroxytryptamine receptor 7 (Rattus norvegicus) (UniProt P32305); experiment: Agonistic activity against rat 5-HT7 adenyl cyclase expressed in HEK293 cells; Active; format: functional, cell-based
[4] = target: 5-hydroxytryptamine receptor 7 (Rattus norvegicus) (UniProt P32305); conditions: HEK293

5-hydroxytryptamine receptor 7, sequence (P32305 whole entry): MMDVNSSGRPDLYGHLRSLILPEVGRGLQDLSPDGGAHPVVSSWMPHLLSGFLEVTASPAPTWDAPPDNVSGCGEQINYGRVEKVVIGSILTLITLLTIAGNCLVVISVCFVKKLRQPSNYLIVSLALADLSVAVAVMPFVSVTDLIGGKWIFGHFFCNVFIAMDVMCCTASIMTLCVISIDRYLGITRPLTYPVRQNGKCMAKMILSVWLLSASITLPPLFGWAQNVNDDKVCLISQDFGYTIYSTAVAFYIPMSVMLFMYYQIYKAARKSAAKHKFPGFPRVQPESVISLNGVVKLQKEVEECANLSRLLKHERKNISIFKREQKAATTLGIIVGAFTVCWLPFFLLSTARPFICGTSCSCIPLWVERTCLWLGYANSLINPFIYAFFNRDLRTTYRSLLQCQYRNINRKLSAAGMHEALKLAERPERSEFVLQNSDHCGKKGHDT
5-hydroxytryptamine receptor 7 (Rattus norvegicus), sequence (P32305 whole entry): as above

Row | Structure (SMILES) | Increase [1] | Ki [2] | Increase [3] | Increase [4]
1 | NCCc1c[nH]c2ccc(C(N)=O)cc12 | 100% | – | – | –
2 | CCCN(CCC)[C@@H]1CCc2cccc(OC)c2C1 | 92% | 33.9 nM | – | –
3 | COc1ccc2cccc(N3CCNCC3)c2c1 | 25% | 20.4 nM | – | –
4 | COc1ccc2[nH]cc(CCN(C)C)c2c1 [MEBUFOTENIN] | 92% | 39.8 nM | – | –
5 | COc1ccc2[nH]cc(CCN)c2c1 | – | – | Active | –
6 | NCCc1c[nH]c2ccc(O)cc12 | – | – | – | Active
7 | CN(C)[C@H]1CCc2c(cccc2-c2cccc3ccccc23)C1 | – | 0.251 nM | Active | –
8 | CCCN(CCC)[C@@H]1CCc2cccc(O)c2C1 | – | 45.7 nM | Active | –
9 | CCCN(CCC)[C@H]1CCc2cccc(OC)c2C1 | 99% | 339 nM | – | –
10 | COc1cccc2c1C[C@H](N)CC2 | 73% | 123 nM | – | –
11 | CN(C)CCc1c[nH]c2ccc(O)cc12 [BUFOTENINE] | – | 7.94 nM | Active | –
12 | COc1ccccc1N1CCNCC1 | – | – | Active | –
13 | COc1ccc2[nH]cc(CCN3CCCC3)c2c1 | 39% | 631 nM | – | –
14 | CCN(CC)[C@@H]1CCc2cccc(OC)c2C1 | 73% | 87.1 nM | – | –
15 | c1ccc2c(N3CCNCC3)cccc2c1 | – | – | Active | –
16 | COc1ccc2c(c1)CC[C@@H](N)C2 | 58% | 1580 nM | – | –
17 | Cc1c(NC2=NCCN2)cccc1-c1ccccc1 | – | – | Active | –
18 | CCN(CC)C(=O)[C@@H]1C=C2c3cccc4[nH]cc(c34)C[C@H]2N(C)C1 | – | – | Active | –
19 | Cc1[nH]c(C)c(-c2cccc3c2CC[C@H](N(C)C)C3)c1C | – | 0.832 nM | Active | –
20 | COc1ccc2[nH]c(C)c(CCN(C)C)c2c1 | 17% | 1120 nM | – | –
